# Results from patent US11130132B2, “Microfluidic neutrophil assays and systems for disease detection” (The General Hospital Corporation, priority 2016, dated 2021).
# Tested on: neutrophils in whole blood
# Experiment: blood-spiking with immune-modulators: spontaneous neutrophil motility in whole blood in the microfluidic device
# Assay type: cell-based, human
# Conditions: 37° C. 30 min before loading
# Experimental: Prior to the addition of a blood sample, devices were primed with IMDM containing 10% FBS and 1% Fibronectin (from human plasma, Sigma) by pipetting 50 μl into the sample loading chamber and around each device, such that a dome of liquid formed on top, and the outer edge of the device in contact with the coverslip was surrounded. The devices were placed under a vacuum for at least 10 minutes, and then removed and allowed to re-pressurize and equilibrate for at least 15 minutes to remove bubbles.
# Whole blood samples to be loaded in the device were diluted 1:1 in IMDM with 20% FBS and stained with Hoechst 33342 dye at 32 μM for 15 minutes prior to loading. A small droplet of 0.5 μL of stained blood was then pipetted into the center of the device using a gel-loading tip. The blood droplet is pipetted into the central chamber and time-lapse imaging of the mazes was then used to measure neutrophil behavior over a period of 4 hours.
# Cell motility was imaged at 10× magnification using a fully automated fluorescent Nikon TiE inverted wide field microscope with a biochamber heated to 37° C. with 5% CO2. Each microfluidic device included 8 imaging fields, each containing one […]. Each field was imaged every 2 minutes over the course of 4 hours to allow accurate tracking of cell motility.
# Automated cell tracking was performed using ImageCV, TrackPy, and SciKit-Learn packages in Python. Files were converted to standard AVI format using Nikon Elements or ImageJ. Initial processing was performed to allow brightfield tracking and included removing the background. Cell tracking was performed automatically from brightfield images for most of the time-lapse sequences. Cells were tracked by size, velocity, and directionality. These tracks were written to individual CSV files for each imaging field. The specific variables for each track included: track number, video frame, cell diameter, x position, y position, distance, and velocity. Cell motility pattern identification and definitions are detailed in Table 2. Figures were prepared using Illustrator CS5 Version 15.0.0 (Adobe Systems).
# For plasma-swapping experiments, 1 mL of whole blood was centrifuged at 200 g for 10 minutes to pellet cells. The platelet-rich plasma supernatants were then drawn from the tubes and transferred into fresh tubes. Platelets were then pelleted at 1900 g for 10 minutes and the plasma fraction drawn into fresh tubes. Cell pellets were then re-suspended in the appropriate exchanged plasma and an aliquot loaded into the device. For blood-spiking experiments, immune-modulators were added to the media at 2× the target dose prior to mixing 1:1 with whole blood. Once mixed, spiked blood samples were incubated at 37° C. for 30 min prior to loading.
# [1] = whole blood spiked at 0.1 ng/mL
# [2] = whole blood spiked at 1.0 ng/mL
# [3] = whole blood spiked at 0.5 ng/mL
# [4] = whole blood spiked at 0.3 ng/mL
# [5] = whole blood spiked at 1.8 ng/mL
Molecule,Oscillations (O) [1],Pausing [1],Spontaneously migrating cells (N) [1],Oscillations (O) [2],Pausing [2],Spontaneously migrating cells (N) [2],Oscillations (O) [3],Pausing [3],Spontaneously migrating cells (N) [3],Oscillations (O) [4],Pausing [4],Spontaneously migrating cells (N) [4],Oscillations (O) [5],Pausing [5],Spontaneously migrating cells (N) [5],Spontaneously migrating cells (N) (whole blood spiked at 2.5 ng/mL)
"IL1-β: immune-modulator previously reported to be elevated in septic blood, spiked into whole blood",1.4 ± 1.5,2.4 ± 2.8,3.8 ± 3.2,1.0,1.0,0.3 ± 0.1,–,–,–,–,–,–,–,–,–,–
TNF-α,1.7 ± 3.4,4.8 ± 8.8,7.2 ± 13.9,0.7 ± 1.2,1.3 ± 0.6,2.7 ± 1.2,1.3 ± 1.2,15.7 ± 14.2,25.3 ± 26.1,–,–,–,–,–,–,–
"G-SCF: immune-modulator previously reported to be elevated in septic blood, spiked into whole blood (protein, UniProt P09919 31-207, looked up) Granulocyte …: TPLGPASSLPQSFLLKCLEQVRKIQGDGAALQEKLVSECATYKLCHPEELVLLGHSLGIPWAPLSSCPSQALQLAGCLSQLHSGLFLYQGLLQALEGISPELGPTLDTLQLDVADFATTIWQQMEELGMAPALQPTQGAMPAFASAFQRRAGGVLVASHLQSFLEVSYRVLRHLAQP",–,–,–,–,–,–,0.3 ± 0.6,2.0 ± 1.7,2.3 ± 2.3,4.2 ± 9.7,4.7 ± 9.6,6.7 ± 13.6,–,–,–,–
"IFN-γ: immune-modulator previously reported to be elevated in septic blood, spiked into whole blood (protein, UniProt P01579 24-161, looked up) Interferon gamma: QDPYVKEAENLKKYFNAGHSDVADNGTLFLGILKNWKEESDRKIMQSQIVSFYFKLFKNFKDDQSIQKSVETIKEDMNVKFFNSNKKKRDDFEKLTNYSVTDLNVQRKAIHELIQVMAELSPAAKTGKRKRSQMLFRG",–,–,–,–,–,–,–,–,–,–,–,–,4.8 ± 6.3,7.0 ± 6.9,10.8 ± 12.4,0 ± 0.0
